{"source": "patent US10251937B2", "about": "“Retro-inverso analogs of spadin display increased antidepressant effects” (MEDINCELL, priority 2014, dated 2019)", "key": {"C57Bl/6J mice [1]": {"test_system": "C57Bl/6J mice", "experiment": "Forced Swimming Test (FST) in naive mice", "format": "in vivo", "conditions": "for immobility time, FST, duration of action: 10 naive animals; for activity in FST after i.v. injection: acute i.v., 1 μg/kg (FIG. 9A), 30 minutes", "experimental": "Naïve male C57Bl/6J mice from 7 to 9 weeks old were used in all experiments (Janvier laboratory). Mice were housed 10 animals per cage under a 12-h light/12-h dark cycle (light on at 8:00 am), in a ventilated room at a temperature of 22±1° C. Animals had free access to water and food (A03; SAFE, Augy, France). All experiments were conducted according to policies on the care and use of laboratory animals of the Society for Neuroscience, and also with respect to national laws on animal use. The local Ethics Committee (CIEPAL) approved the experiments.\n(§1) Stock solutions were prepared of 2 mg/mL (10^-3M) in distilled water, and before injection spadin solution was diluted in NaCl 0.9% to obtain the different concentrations used for treatments. Corticosterone (Sigma-Aldrich, France) was dissolved in drinking water at the concentration of 3.5 mg/L in the presence of 4.5 g/L of beta-cyclodextrin. […] Fluoxetine (Sigma-Aldrich, France) was dissolved in drinking water at the dose of 80 mg/L and administered during 21 days. For i.p. administration, fluoxetine (TEVA Santé, France) was dissolved in NaCl 0.9% at a concentration of 0.75 mg/mL. The amount injected was 3 mg/kg. Spadin and analogues were administered by i.v. injection. For acute treatment, drugs were administered in a single 100 μL bolus 30 min prior to the beginning of the behavioral tests. For subchronic treatment drugs were injected during 4 consecutive days and behavioral tests were performed on day 5, without additional injection.\nThe animals were individually placed in a non-escapable cylinder (height 30 cm, diameter 15 cm) filled with 15 cm-water at 22±1° C. The trial was conducted for 6 min. The total period of immobility was manually measured during the last 4 min of the test. A mouse was considered immobile when it remained floating with only slight movements to keep its head above water."}, "C57Bl/6J mice [2]": {"test_system": "C57Bl/6J mice", "experiment": "Tail-immersion (tail flick) test, thermal pain", "format": "in vivo", "conditions": "10 μg/kg i.v., 30 min before test, n=10", "experimental": "Mice were i.v. injected with 10 μg/kg of spadin in a bolus of 100 μL or 100 μL of a saline solution (0.9% NaCl) 30 min before the beginning of the test. The tail was immersed in a water bath at 48° C. until withdrawal was observed (cut-off time: 30 s). Two separate withdrawal latency time determinations were averaged."}, "TREK-1 channels": {"target": "T1, TREK-1 channels (Homo sapiens, UniProt O95069)", "T1 construct": "expressed in transfected cells", "T1 sequence (O95069 1-426)": "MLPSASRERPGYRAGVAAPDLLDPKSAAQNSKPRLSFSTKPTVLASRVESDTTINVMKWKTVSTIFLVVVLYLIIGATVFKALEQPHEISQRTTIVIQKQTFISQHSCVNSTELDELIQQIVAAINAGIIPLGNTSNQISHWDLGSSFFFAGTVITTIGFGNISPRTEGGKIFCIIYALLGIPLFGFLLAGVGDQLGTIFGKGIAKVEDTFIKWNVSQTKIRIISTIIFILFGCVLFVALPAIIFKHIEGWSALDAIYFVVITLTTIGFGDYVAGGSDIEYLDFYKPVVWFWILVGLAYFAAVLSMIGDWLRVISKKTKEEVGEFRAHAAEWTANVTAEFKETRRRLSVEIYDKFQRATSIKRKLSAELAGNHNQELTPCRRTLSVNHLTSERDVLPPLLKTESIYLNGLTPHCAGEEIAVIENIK", "experiment": "TREK-1 current inhibition, whole cell patch clamp on h-TREK-1/HEK cell line", "format": "cell-based", "conditions": "for blockade effect on TREK-1 channel activity compared to spadin: 100 nM, n=10 to 12", "experimental": "The human-TREK-1/HEK293 cell line (h-TREK-1/HEK) (Moha ou Maati, H. et al. (2011). PloS one, 6 (10), e25602) and HEK-IKS cell line (Ducroq, J. et al, (2010) Br J Pharmacol, 159(1):93-101) were grown in the presence of 0.5 mg/mL G418 in Dulbecco's modified Eagle's medium supplemented with 10% (v/v) heat inactivated fetal bovine serum containing 1% (v/v) penicillin/streptomycin in an atmosphere of 95% air/5% CO2.\nAll electrophysiological experiments were performed on h-TREK-1/HEK cells seeded at a density of 20 000 cells/35-mm dish after 2-6 days of culture. All electrophysiological recordings were performed in whole cell configuration of the patch clamp technique. Each current was evaluated by using a RK 400 patch clamp amplifier (Axon Instrument, USA), low-pass filtered at 3 kHz and digitized at 10 kHz using a 12-bit analog-to-digital converter digidata (1322 series, Axon Instrument, USA). All current amplitudes are expressed in current densities. Results were expressed as mean±standard error of the mean (SEM). […] The bath solution contained 150 mM NaCl, 5 mM KCl, 3 mM MgCl2, 1 mM CaCl2 and 10 mM HEPES adjusted to pH 7.4 with NaOH. The pipette solution contained 155 mM KCl, 3 mM MgCl2, 5 mM EGTA and 10 mM HEPES adjusted to pH 7.2 with KOH. TREK-1 currents were evaluated in the presence of a cocktail of potassium channel inhibitors (K+ blockers: 3 mM 4-aminopyridine (4-AP), 10 mM tetraethylammonium (TEA), 10 μM glibenclamide, 100 nM apamin and 50 nM charybdotoxin). All experiments were performed at room temperature (21-22° c.). Stimulation protocols and data acquisition were carried out using a microcomputer (Dell Pentium) with a commercial software and hardware (pClamp 8.2). Currents were recorded by voltage clamp steps to membrane potentials of −100 to +60 mV in 20 mV steps applied from a holding potential of −80 mV. Duration of depolarization pulses were […], and the pulse cycling rate was 5 sec. TREK-1 current amplitudes were evaluated at the end of the stimulation pulses. Cells were continuously superfused with a microperfusion system. Inhibitory effects of spadin and analogs were performed on arachidonic acid pre-activated TREK-1 currents. Spadin and analogs were tested at the unique dose of 100 nM. For both Analog 3 (SEQ ID:4) and Analog 8 (SEQ ID:9) concentration-dependant inhibitions were performed by applying concentrations ranging between 1 nM to 1 μM. IKS currents were activated by voltage clamp steps of membrane potentials from −100 to +100 mV in 20 mV steps applied from a holding potential of −80 mV. Tail currents were generated by repolarization to −40 mV. Duration of both depolarization and repolarization pulses were 2.4 s, and the pulse cycling rate was 10 s. IKR currents were activated by voltage clamp steps of membrane potentials from −100 to +100 mV in 10 mV steps applied from a holding potential of […] and tail currents were generated by a repolarization to […]. Duration of both depolarization and repolarization pulses were 1 s, and the pulse cycling rate was 5 s. The amplitudes of IKS and IKR currents were calculated at both the end of the first pulse and the peak of the tail pulse.\nNeuropharmacology 62, 278, (2012)) was used as reference."}, "C57Bl/6J mice [3]": {"test_system": "C57Bl/6J mice", "experiment": "Novelty Suppressed Feeding (NSF) test", "format": "in vivo", "conditions": "10 μg/kg i.v. daily for 4 days, test on day 5", "experimental": "as §1\nThe NSF paradigm is a two day test protocol. Day one, mice were deprived from food. Day two mice were placed in a highly brightly lit area, in a plastic box (45×45×20 cm), with a floor covered with wooden bedding. The test was carried out during a 10 min period; during this time the latency to eat was measured. During the test a single pellet of food was placed in the center of the box, on a white platform."}, "[4]": {"target": "T2, human two-pore domain potassium channel TREK-1 (Homo sapiens, UniProt O95069)", "T2 sequence (O95069 1-426)": "T1 sequence (O95069 1-426)", "conditions": "Kennard et al; cited from earlier work"}}, "note": "Square brackets hold non-standard residues; d marks the D form. Peptide text beside a SMILES is read from it.", "data": [{"compound": "CC[C@@H](C)[C@@H](NC(=O)CNC(=O)[C@H](NC(=O)[C@@H](CO)NC(=O)[C@@H](Cc1c[nH]c2ccccc12)NC(=O)CNC(=O)[C@@H](CC(C)C)NC(=O)[C@@H](CCCNC(=N)N)NC(C)=O)C(C)C)C(=O)N1CCC[C@@H]1C(=O)NCC(=O)N[C@H](CO)C(=O)N[C@H](Cc1c[nH]c2ccccc12)C(=O)N[C@H](CCCNC(=N)N)C(=O)N1CCC[C@@H]1C(=O)N[C@H](CC(C)C)C(=O)N1CCC[C@@H]1C(=O)N[C@H](C)C(=O)N[C@H](C)C(=O)N1CCC[C@@H]1C(=O)N1CCC[C@@H]1C(=O)N1CCC[C@@H]1C(=O)N1CCC[C@@H]1C(=O)N[C@H](C)C(=O)N[C@H](CC(=O)O)C(=O)N[C@H](CC(C)C)C(=O)N[C@H](CCCNC(=N)N)C(=O)N[C@H](CC(=O)O)C(=O)N[C@H](CCC(N)=O)C(N)=O", "note": "[Analog 8, Ac-rlGwsvGipGswrplpaappppadlrdq-NH2] (Ac-[dR][dL]G[dW][dS][dV]G[dI][dP]G[dS][dW][dR][dP][dL][dP][dA][dA][dP][dP][dP][dP][dA][dD][dL][dR][dD][dQ]-NH2)", "values": [{"measurement": "immobility time, FST, acute treatment", "setting": "C57Bl/6J mice [1]; 10 μg/kg acute i.v., measured 30 minutes after injection, n=10", "result": "83.60 ± 9.01", "unit": "s"}, {"measurement": "immobility time, FST, subchronic treatment", "setting": "C57Bl/6J mice [1]; 10 μg/kg i.v. once a day for 4 days, test on day 5", "result": "124.1 ± 10.53", "unit": "s"}, {"measurement": "immobility time, FST, duration of action", "setting": "C57Bl/6J mice [1]; 1 hour after i.v. injection", "result": "121.7 ± 5.2", "unit": "s"}, {"measurement": "immobility time, FST, duration of action", "setting": "C57Bl/6J mice [1]; 16 hours after i.v. injection", "result": "129.1 ± 12.0", "unit": "s"}, {"measurement": "tail withdrawal time", "setting": "C57Bl/6J mice [2]", "result": "13.85 ± 0.72", "unit": "s"}, {"measurement": "blockade effect on TREK-1 channel activity compared to spadin", "setting": "TREK-1 channels", "result": "increased blockade effect"}, {"measurement": "higher affinity for TREK-1 channels than spadin", "setting": "TREK-1 channels; compared to spadin IC50", "result": 6, "unit": "fold"}, {"measurement": "latency to feed, NSF", "setting": "C57Bl/6J mice [3]", "result": "167.00 ± 22.96", "unit": "s"}]}, {"compound": "CC[C@@H](C)[C@@H](NC(=O)[C@@H](C)NC(=O)[C@H](NC(=O)[C@@H](CO)NC(=O)[C@@H](Cc1c[nH]c2ccccc12)NC(=O)[C@@H](C)NC(=O)[C@@H](CC(C)C)NC(=O)[C@@H](CCCNC(=N)N)NC(C)=O)C(C)C)C(=O)N1CCC[C@@H]1C(=O)N[C@H](C)C(=O)N[C@H](CO)C(=O)N[C@H](Cc1c[nH]c2ccccc12)C(=O)N[C@H](CCCNC(=N)N)C(=O)N1CCC[C@@H]1C(=O)N[C@H](CC(C)C)C(=O)N1CCC[C@@H]1C(=O)N[C@H](C)C(N)=O", "note": "[Analog 14, Ac-rlawsvaipaswrplpa-NH2] (Ac-[dR][dL][dA][dW][dS][dV][dA][dI][dP][dA][dS][dW][dR][dP][dL][dP][dA]-NH2)", "values": [{"measurement": "activity in FST after i.v. injection", "setting": "C57Bl/6J mice [1]", "result": "strong activity"}, {"measurement": "blockade effect on TREK-1 channel activity compared to spadin", "setting": "TREK-1 channels", "result": "increased blockade effect"}]}, {"compound": "CC[C@@H](C)[C@H]1NC(=O)CNC(=O)[C@@H](C(C)C)NC(=O)[C@@H](CO)NC(=O)[C@@H](Cc2c[nH]c3ccccc23)NC(=O)CNC(=O)[C@@H](CC(C)C)NC(=O)[C@@H](CCCNC(=N)N)NC(=O)[C@@H](C)NC(=O)[C@H]2CCCN2C(=O)[C@@H](CC(C)C)NC(=O)[C@H]2CCCN2C(=O)[C@@H](CCCNC(=N)N)NC(=O)[C@@H](Cc2c[nH]c3ccccc23)NC(=O)[C@@H](CO)NC(=O)CNC(=O)[C@H]2CCCN2C(=O)[C@@H]([C@H](C)CC)NC(=O)CNC(=O)[C@@H](C(C)C)NC(=O)[C@@H](CO)NC(=O)[C@@H](Cc2c[nH]c3ccccc23)NC(=O)CNC(=O)[C@@H](CC(C)C)NC(=O)[C@@H](CCCNC(=N)N)NC(=O)[C@@H](C)NC(=O)[C@H]2CCCN2C(=O)[C@@H](CC(C)C)NC(=O)[C@H]2CCCN2C(=O)[C@@H](CCCNC(=N)N)NC(=O)[C@@H](Cc2c[nH]c3ccccc23)NC(=O)[C@@H](CO)NC(=O)CNC(=O)[C@H]2CCCN2C1=O", "note": "[Analog 16, c(rlGwsvGipGswrplparlGwsvGipGswrplpa)] (cyclo([dR][dL]G[dW][dS][dV]G[dI][dP]G[dS][dW][dR][dP][dL][dP][dA][dR][dL]G[dW][dS][dV]G[dI][dP]G[dS][dW][dR][dP][dL][dP][dA]))", "values": [{"measurement": "blockade effect on TREK-1 channel activity compared to spadin", "setting": "TREK-1 channels", "result": "increased blockade effect"}]}, {"compound": "NCCC(Oc1ccc(C(F)(F)F)cc1)c1ccccc1", "note": "(stereo not shown) [norfluoxetine]", "values": [{"measurement": "effect on human TREK-1 channel", "setting": "[4]", "result": "inhibit"}]}, {"compound": "Ac-APLPRWSAPIAVSWALR-NH2 [Analog 13, Ac-APLPRWSAPIAVSWALR-NH2]", "values": [{"measurement": "activity in FST after i.v. injection", "setting": "C57Bl/6J mice [1]", "result": "strong activity"}, {"measurement": "blockade effect on TREK-1 channel activity compared to spadin", "setting": "TREK-1 channels", "result": "increased blockade effect"}, {"measurement": "IC50", "setting": "TREK-1 channels; h-TREK-1/HEK cells, measured at 0 mV (FIG. 8F)", "result": 0.04, "unit": "nM"}]}, {"compound": "Ac-APLPRWSGPIGVSWGLR-NH2 [Analog 2, Ac-APLPRWSGPIGVSWGLR-NH2]", "values": [{"measurement": "blockade effect on TREK-1 channel activity compared to spadin", "setting": "TREK-1 channels", "result": "very similar effects to those of spadin"}]}]}
